Laboratory results as given in patent publication US12162901B2, “N-acetylated sialic acids and related sialosides” (priority 2016, dated 2024).

Key:
BJA-B K20 cells = experiment: Feeding of free sialic acids to BJA-B K20 cells, PToV probes, flow cytometry; type: cell-based, human; conditions: 1 mM, three days; PToV with active esterase
[1] = biological target: bovine coronavirus hemagglutinin-esterase (BCoV-Mebus-Fc, esterase inactivated) (Bovine coronavirus, UniProt P15776, S40A); experiment: Sialoglycan microarray binding of BCoV-Mebus-Fc (esterase inactive); conditions: without esterase treatment (FIG. 3A)

CC(=O)N[C@H]1[C@H]([C@H](O)[C@H](O)COC(C)=O)OC(O)(C(=O)O)C[C@@H]1O (stereo partly shown) [Neu5,9Ac2, 9-O-acetyl-N-acetylneuraminic acid]
resistance of cell surface sialic acid to virus-hemagglutinin-esterase activity (BJA-B K20 cells): only Neu5Ac9NAc-fed ones were resistant

CC(=O)N[C@H]1[C@H]([C@H](O)[C@H](O)COC(C)=O)O[C@@](O[C@H]2[C@@H](O)[C@@H](CO)O[C@@H](O[C@H]3[C@H](O)[C@@H](O)[C@H](OCCCN)O[C@@H]3CO)[C@@H]2O)(C(=O)O)C[C@@H]1O [Neu5,9Ac2α3Galβ4GlcβProNH2]
binding of BCoV on glycan microarray [1]: prefer binding

CC(=O)NC[C@@H](O)[C@@H](O)[C@@H]1OC(O)(C(=O)O)C[C@H](O)[C@H]1NC(C)=O (stereo partly drawn) [Neu5Ac9NAc, 5,9-Diacetamido-3,5,9-Trideoxy-D-glycero-D-galacto-2-nonulopyranosylonic Acid]
resistance of cell surface sialic acid to virus-hemagglutinin-esterase activity (BJA-B K20 cells): resistant to virus-hemagglutinin-esterase activity

CC(=O)NC[C@@H](O)[C@@H](O)[C@@H]1O[C@@](O[C@H]2[C@@H](O)[C@@H](CO)O[C@@H](O[C@H]3[C@H](O)[C@@H](O)[C@H](OCCCN)O[C@@H]3CO)[C@@H]2O)(C(=O)O)C[C@H](O)[C@H]1NC(C)=O [Neu5Ac9NAcα3Galβ4GlcβProNH2, 3-Aminopropyl O-(5,9-Diacetamido-3,5,9-trideoxy-D-glycero-α-D-galacto-2-nonulopyranosylonic acid)-(2→3)-O-β-D-galactopyranosyl-(1→4)-β-D-glucopyranoside]
binding of BCoV on glycan microarray [1]: prefer binding
